How the values were obtained:
Haemonchus contortus L3 = test: microbe, parasite or virus in culture; format: cell-based; conditions: Haemonchus contortus, 96 h, read-out: HcL3 Minimal Effective Concentration (MEC)
D. immitis microfilariae = test: Dirofilaria immitis, microfilariae (DiMF) in vitro motility assay; format: cell-based; conditions: Dirofilaria immitis, 72 h, read-out: DiMF minimally effective dose (MEC)

Row | Structure (SMILES) | minimal effective concentration (Haemonchus contortus L3) | minimal effective concentration (D. immitis microfilariae)
1 | N#Cc1ccc2c(c1)c1c(n2C(=O)NCc2ccnc(Cl)c2)CCN(C/C=C/c2ccc(Cl)c(F)c2)C1 [Example 72, (E)-2-(3-(4-chloro-3-fluorophenyl)allyl)-N-((2-chloropyridin-4-yl)methyl)-8-cyano-1,2,3,4-tetrahydro-5H-pyrido[4,3-b]indole-5-carboxamide] | 0.2 µM | 5.1 µM
2 | N#Cc1ccc2c(c1)c1c(n2C(=O)NCc2ccnc(Cl)c2)CCN(C/C=C/c2ccc(Br)cc2F)C1 [Example 73, (E)-2-(3-(4-bromo-2-fluorophenyl)allyl)-N-((2-chloropyridin-4-yl)methyl)-8-cyano-1,2,3,4-tetrahydro-5H-pyrido[4,3-b]indole-5-carboxamide] | 0.1 µM | > 100 µM
3 | N#Cc1ccc2c(c1)c1c(n2C(=O)NCc2ccnc(Cl)c2)CCN(C/C=C/c2c(F)cc(Cl)cc2F)C1 [Example 74, (E)-2-(3-(4-chloro-2,6-difluorophenyl)allyl)-N-((2-chloropyridin-4-yl)methyl)-8-cyano-1,2,3,4-tetrahydro-5H-pyrido[4,3-b]indole-5-carboxamide] | 0.2 µM | > 100 µM
4 | N#Cc1ccc2c(c1)c1c(n2C(=O)NCc2ccnc(Cl)c2)CCN(C/C=C/c2ccc(Cl)cc2F)C1 [Example 75, (E)-2-(3-(4-chloro-2-fluorophenyl)allyl)-N-((2-chloropyridin-4-yl)methyl)-8-cyano-1,2,3,4-tetrahydro-5H-pyrido[4,3-b]indole-5-carboxamide] | 0.1 µM | 10.2 µM
5 | N#Cc1ccc2c(c1)c1c(n2C(=O)NCc2ccnc(Cl)c2)CCN(C/C=C/c2c(F)cc(F)cc2F)C1 [Example 76, (E)-N-((2-chloropyridin-4-yl)methyl)-8-cyano-2-(3-(2,4,6-trifluorophenyl)allyl)-1,2,3,4-tetrahydro-5H-pyrido[4,3-b]indole-5-carboxamide] | 0.1 µM | > 100 µM
6 | N#Cc1ccc2c(c1)c1c(n2C(=O)NCc2ccnc(Cl)c2)CCN(C/C=C/c2cc(F)ccc2Br)C1 [Example 77, (E)-2-(3-(2-bromo-5-fluorophenyl)allyl)-N-((2-chloropyridin-4-yl)methyl)-8-cyano-1,2,3,4-tetrahydro-5H-pyrido[4,3-b]indole-5-carboxamide] | 0.3 µM | > 100 µM
7 | N#Cc1ccc2c(c1)c1c(n2C(=O)NCc2ccnc(Cl)c2)CCN(C/C=C/c2cc(Br)ccc2F)C1 [Example 78, (E)-2-(3-(5-bromo-2-fluorophenyl)allyl)-N-((2-chloropyridin-4-yl)methyl)-8-cyano-1,2,3,4-tetrahydro-5H-pyrido[4,3-b]indole-5-carboxamide] | 0.6 µM | > 100 µM
8 | N#Cc1ccc2c(c1)c1c(n2C(=O)NCc2ccnc(Cl)c2)CCN(C/C=C/c2ccc(F)c(Br)c2)C1 [Example 79, (E)-2-(3-(3-bromo-4-fluorophenyl)allyl)-N-((2-chloropyridin-4-yl)methyl)-8-cyano-1,2,3,4-tetrahydro-5H-pyrido[4,3-b]indole-5-carboxamide] | 0.3 µM | > 100 µM
9 | N#Cc1ccc2c(c1)c1c(n2C(=O)NCc2ccnc(Cl)c2)CCN(C/C=C/c2ccc(F)c(F)c2F)C1 [Example 80, (E)-N-((2-chloropyridin-4-yl)methyl)-8-cyano-2-(3-(2,3,4-trifluorophenyl)allyl)-1,2,3,4-tetrahydro-5H-pyrido[4,3-b]indole-5-carboxamide] | 0.06 µM | > 100 µM
10 | N#Cc1ccc2c(c1)c1c(n2C(=O)NCc2ccnc(Cl)c2)CCN(C/C=C/c2ccc(Br)c(F)c2F)C1 [Example 81, (E)-2-(3-(4-bromo-2,3-difluorophenyl)allyl)-N-((2-chloropyridin-4-yl)methyl)-8-cyano-1,2,3,4-tetrahydro-5H-pyrido[4,3-b]indole-5-carboxamide] | 0.2 µM | > 100 µM
11 | N#Cc1ccc2c(c1)c1c(n2C(=O)NCc2ccnc(Cl)c2)CCN(C/C=C/c2ccc(Cl)c(F)c2F)C1 [Example 82, (E)-2-(3-(4-chloro-2,3-difluorophenyl)allyl)-N-((2-chloropyridin-4-yl)methyl)-8-cyano-1,2,3,4-tetrahydro-5H-pyrido[4,3-b]indole-5-carboxamide] | 0.2 µM | > 100 µM
12 | N#Cc1ccc2c(c1)c1c(n2C(=O)NCc2ccnc(Cl)c2)CCN(C/C=C/c2c(F)c(F)c(F)c(F)c2F)C1 [Example 83, (E)-N-((2-chloropyridin-4-yl)methyl)-8-cyano-2-(3-(perfluorophenyl)allyl)-1,2,3,4-tetrahydro-5H-pyrido[4,3-b]indole-5-carboxamide] | 0.1 µM | > 100 µM
13 | N#Cc1ccc2c(c1)c1c(n2C(=O)NCc2ccnc(Cl)c2)CCN(C/C=C/c2c(F)c(F)c(Cl)c(F)c2F)C1 [Example 84, (E)-2-(3-(4-chloro-2,3,5,6-tetrafluorophenyl)allyl)-N-((2-chloropyridin-4-yl)methyl)-8-cyano-1,2,3,4-tetrahydro-5H-pyrido[4,3-b]indole-5-carboxamide] | 0.1 µM | > 100 µM
14 | N#Cc1ccc2c(c1)c1c(n2C(=O)NCc2ccnc(Cl)c2)CCN(C/C=C/c2ccc(Br)c(F)c2)C1 [Example 85, (E)-2-(3-(4-bromo-3-fluorophenyl)allyl)-N-((2-chloropyridin-4-yl)methyl)-8-cyano-1,2,3,4-tetrahydro-5H-pyrido[4,3-b]indole-5-carboxamide] | 0.1 µM | > 100 µM
15 | N#Cc1ccc2c(c1)c1c(n2C(=O)NCc2ccnc(Cl)c2)CCN(C/C=C/c2ccc(F)cc2Cl)C1 [Example 87, (E)-2-(3-(2-chloro-4-fluorophenyl)allyl)-N-((2-chloropyridin-4-yl)methyl)-8-cyano-1,2,3,4-tetrahydro-5H-pyrido[4,3-b]indole-5-carboxamide] | 0.2 µM | 5.7 µM
16 | N#Cc1ccc2c(c1)c1c(n2C(=O)NCc2ccnc(Cl)c2)CCN(C/C=C/c2cc(F)c(F)c(F)c2)C1 [Example 89, (E)-N-((2-chloropyridin-4-yl)methyl)-8-cyano-2-(3-(3,4,5-trifluorophenyl)allyl)-1,2,3,4-tetrahydro-5H-pyrido[4,3-b]indole-5-carboxamide] | 0.1 µM | 1 µM
17 | N#Cc1ccc2c(c1)c1c(n2C(=O)NCc2ccnc(Cl)c2)CCN(C/C=C/c2cc(F)cc(F)c2)C1 [Example 90, (E)-N-((2-chloropyridin-4-yl)methyl)-8-cyano-2-(3-(3,5-difluorophenyl)allyl)-1,2,3,4-tetrahydro-5H-pyrido[4,3-b]indole-5-carboxamide] | 0.1 µM | 3.3 µM
18 | N#Cc1ccc(/C=C/CN2CCc3c(c4cc(C#N)ccc4n3C(=O)NCc3ccnc(Cl)c3)C2)cc1 [Example 91, (E)-N-((2-chloropyridin-4-yl)methyl)-8-cyano-2-(3-(4-cyanophenyl)allyl)-1,2,3,4-tetrahydro-5H-pyrido[4,3-b]indole-5-carboxamide] | 0.4 µM | 13.5 µM
19 | N#Cc1ccc2c(c1)c1c(n2C(=O)NCc2ccnc(Cl)c2)CCN(C/C=C/c2ccc(Cl)cc2)C1 [Example 92, (E)-2-(3-(4-chlorophenyl)allyl)-N-((2-chloropyridin-4-yl)methyl)-8-cyano-1,2,3,4-tetrahydro-5H-pyrido[4,3-b]indole-5-carboxamide] | 0.3 µM | 3.3 µM
20 | N#Cc1ccc2c(c1)c1c(n2C(=O)NCc2ccnc(Cl)c2)CCN(C/C=C/c2ccc(Cl)c(Cl)c2)C1 [Example 93, (E)-N-((2-chloropyridin-4-yl)methyl)-8-cyano-2-(3-(3,4-dichlorophenyl)allyl)-1,2,3,4-tetrahydro-5H-pyrido[4,3-b]indole-5-carboxamide] | 0.7 µM | 2.4 µM
21 | N#Cc1ccc2c(c1)c1c(n2C(=O)NCc2ccnc(Cl)c2)CCN(C/C=C/c2ccc(F)cc2Br)C1 [Example 94, (E)-2-(3-(2-bromo-4-fluorophenyl)allyl)-N-((2-chloropyridin-4-yl)methyl)-8-cyano-1,2,3,4-tetrahydro-5H-pyrido[4,3-b]indole-5-carboxamide] | 0.1 µM | > 100 µM
22 | Cc1cc(/C=C/CN2CCc3c(c4cc(C#N)ccc4n3C(=O)NCc3ccnc(Cl)c3)C2)ccc1Cl [Example 96, (E)-2-(3-(4-chloro-3-methylphenyl)allyl)-N-((2-chloropyridin-4-yl)methyl)-8-cyano-1,2,3,4-tetrahydro-5H-pyrido[4,3-b]indole-5-carboxamide] | 0.2 µM | > 100 µM
23 | N#Cc1ccc2c(c1)c1c(n2C(=O)NCc2ccnc(Cl)c2)CCN(C/C=C/c2ccc(Cl)c(Br)c2)C1 [Example 97, (E)-2-(3-(3-bromo-4-chlorophenyl)allyl)-N-((2-chloropyridin-4-yl)methyl)-8-cyano-1,2,3,4-tetrahydro-5H-pyrido[4,3-b]indole-5-carboxamide] | 0.3 µM | > 100 µM
24 | N#Cc1ccc2c(c1)c1c(n2C(=O)NCc2ccnc(Cl)c2)CCN(C/C=C/c2ccc(F)c(C#N)c2)C1 [Example 98, (E)-N-((2-chloropyridin-4-yl)methyl)-8-cyano-2-(3-(3-cyano-4-fluorophenyl)allyl)-1,2,3,4-tetrahydro-5H-pyrido[4,3-b]indole-5-carboxamide] | 0.3 µM | > 100 µM
25 | CS(=O)(=O)c1ccc(/C=C/CN2CCc3c(c4cc(C#N)ccc4n3C(=O)NCc3ccnc(F)c3)C2)cc1 [Example 100, (E)-8-cyano-N-((2-fluoropyridin-4-yl)methyl)-2-(3-(4-(methylsulfonyl)-phenyl)allyl)-1,2,3,4-tetrahydro-5H-pyrido[4,3-b]indole-5-carboxamide] | > 100 µM | > 100 µM

From US10570129B2 (Zoetis Services LLC, priority 2015, dated 2020)
